What was measured:
[1] = target: T1, human GluR1 flip (Homo sapiens, UniProt P42261); assay: AMPA receptor function-enhancing activity using calcium influx as index (CHO-K1/GluR1 flip/stargazin-expressing cells); type: cell-based; details: CHO-K1, test compound 30 μM with 3 mM glutamic acid, 100% = 3 mM glutamic acid + 300 μM cyclothiazide, 0% = 3 mM glutamic acid alone, read-out: hGluR1 flip/30 μM (%)
T1 construct: expressed in transfected cells; host or cells: CHO-K1
Text: Experimental Example 1 Measurement method of AMPA receptor function-enhancing activity of compound using calcium influx as index
(1) Construction of Expression Gene
Human GluR1 flip cDNA was amplified by PCR method using forward primer […] (SEQ ID NO: 1) and reverse primer […] (SEQ ID NO: 2) artificially synthesized using human brain-derived cDNA (BD Bioscience) as a template. The amplified product was digested with restriction enzymes EcoRI, NotI (TAKARA SHUZO CO. LTD.) and incorporated into the same site of pcDNA3.1(+) (Invitrogen) to construct pcDNA3.1(+)/human GluR1 flip gene. Human stargazin cDNA was amplified by PCR method using forward primer […] (SEQ ID NO: 3) and reverse primer […] (SEQ ID NO: 4) artificially synthesized using human hippocampus cDNA as a template. The amplified product was digested with restriction enzymes XhoI, BamHI (TAKARA SHUZO CO. LTD.) and incorporated into the same site of pcDNA3.1(−) (Invitrogen) to construct pcDNA3.1 Zeo(−)/human stargazing gene.
(2) Construction of GluR1 Flip/Stargazin Expressing Cell
CHO-K1 cells passaged in a culture medium (Ham's F12 medium (Invitrogen) added with 10% inactivated fetal bovine serum (Morgate) and penicillin, streptomycin (Invitrogen)) were detached using 0.05% trypsin and 0.53 mM EDTA (Invitrogen) diluted with D-PBS(−). The detached cells were suspended in a culture medium, and recovered by centrifugation at 1,000 rpm. The recovered cells were re-suspended in D-PBS(−) and added into 0.4 cm electroporation cuvette (BioRad). pcDNA3.1(+)/human GluR1 flip gene (5 μg) and pcDNA3.1 Zeo(−)/human stargazin gene (15 μg) were added, and introduced into CHO-K1 cells under the conditions of 950 μFd, […] and using Gene Pulser II (BioRad). The introduced cells were cultured overnight in a culture medium. The next day, using a selection medium (culture medium added with zeocin (Invitrogen) at 250 μg/mL), the cells were plated in a 96 well plate at 250 cells/well. The clones showing drug resistance were selected, and GluR1 flip/stargazin expression clones were selected by an assay method shown below using calcium influx as an index.
(3) Measurement Method of AMPA Receptor Function-Enhancing Activity of Compound, Using Calcium Influx as an Index
CHO-K1/GluR1 flip/stargazin-expressing cells were plated on a 384 well black bottom transparent plate, and cultured for 2 days in a CO2 incubator (SANYO ELECTRIC Co. Ltd.) at 37° C. The medium of the cell plate was removed. A calcium indicator (Calcium5 Assay Kit, Molecular Devices) was diluted with an assay buffer (HBSS (Thermo Fisher Scientific), 0.1% BSA (Merck Millipoer) and 10 mM HEPES (Thermo Fisher Scientific)), and 1.25 mM probenecid (Dojindo Laboratories) was added thereto. The mixture prepared above was added at 30 μL/well (100 μL/well in case of 96 wells) to the well, and the well was left standing in 37° C., CO2 incubator for 1 hr. The cell plate was set in CellLux (PerkinElmer), a mixture (15 μL) (50 μL/well in case of 96 wells) of […] glutamic acid (final concentration 3 mM) diluted with an assay buffer and a test compound (test compound concentration 30 μM) was added thereto, and variation in the amount of fluorescence was measured for 3 min. The variation of fluorescence level of a well added with final concentration 3 mM of glutamic acid and 300 μM cyclothiazide (TOCRIS) was defined as 100%, the variation of fluorescence level of a well added with final concentration 3 mM of glutamic acid alone was defined as 0%, and the activity of the compound was calculated by the following formula. activity (%)=(X−C)/(T−C)×100 • T: variation of fluorescence level of well added with final concentration 3 mM of glutamic acid and 300 μM cyclothiazide • C: variation of fluorescence level of well added with final concentration 3 mM of glutamic acid alone • X: variation of fluorescence level of well added with test compound

[2] = test system: Long Evans rats; assay: Novel object recognition test; type: in vivo, rat; details: male Long Evans rats; for Novel Object Interaction (%): 1 mg/kg p.o. 1 hr before acquisition trial and 1 hr before retention trial, retention trial 48 hr after acquisition, mean ± standard error; for novel object interaction (result in words): 1 mg/kg p.o., versus 0 mg/kg
Text: Experimental Example 2 Novel Object Recognition Test
Male Long Evans rats were supplied by Japan SLC, and used at 7-week-old in the experiments. After arrival to the vivarium, animals were allowed a minimum of 1 week for acclimation. They were housed under a 12:12-h light/dark cycle in a temperature- and humidity-controlled laboratory and allowed food and water ad libitum.
A test compound was suspended in 0.5% methylcellulose in distilled water and orally administered (p.o.). All test compounds were dosed in a volume of 2 mL/kg body weight for rats.
(3) Novel Object Recognition Test
Novel object recognition test is a test system utilizing the novel object preference characteristics of rodents. This novel object recognition test consists of two trials, “acquisition trial” and “retention trial”, and, when an interval between these two trials is short, rodents spend a longer period for novel object exploration behaviors, and the preference dissipates as the interval gets longer. From this, the behavioral change in the novel object recognition test is considered to reflect the rodents' memory of the object during the acquisition trial. In this experimental example, the retention trial was carried out 48 hr after the acquisition trial. On the day before the test, for acclimation, Long-Evans rats were allowed to freely move about the test box (40×40×50 cm) for 10 minutes. On the test day, the rats were acclimated to the test room for about 1 hr prior to the test. The test compound (Compound A (Example 10), Compound B (Example 35), 1 mg/kg) were orally administered to the rats twice 1 hr before the acquisition trial and 1 hr before the retention trial. For the acquisition trial, two identical objects (A1, A2) were placed in the test box. The rats were put in the test box for 3 min, and the duration contacting each object was measured. The retention trial was carried out 48 hr after the acquisition trial. For the retention trial, the familiar object (A3) used for the acquisition trial and the novel object (B) different shape from A3 were placed in the test box. The rats were put in the test box for 3 min. The duration contacting each object in the acquisition trial and the retention trial, and the novel object interaction (%) was calculated. The novel object interaction (%) was expressed as (the duration contacting the novel object)/[(the duration contacting the novel object)+(the duration contacting the familiar object)]×100(%) at mean±standard error.

T1 sequence (P42261 19-906 isoform P42261-2 limits assumed): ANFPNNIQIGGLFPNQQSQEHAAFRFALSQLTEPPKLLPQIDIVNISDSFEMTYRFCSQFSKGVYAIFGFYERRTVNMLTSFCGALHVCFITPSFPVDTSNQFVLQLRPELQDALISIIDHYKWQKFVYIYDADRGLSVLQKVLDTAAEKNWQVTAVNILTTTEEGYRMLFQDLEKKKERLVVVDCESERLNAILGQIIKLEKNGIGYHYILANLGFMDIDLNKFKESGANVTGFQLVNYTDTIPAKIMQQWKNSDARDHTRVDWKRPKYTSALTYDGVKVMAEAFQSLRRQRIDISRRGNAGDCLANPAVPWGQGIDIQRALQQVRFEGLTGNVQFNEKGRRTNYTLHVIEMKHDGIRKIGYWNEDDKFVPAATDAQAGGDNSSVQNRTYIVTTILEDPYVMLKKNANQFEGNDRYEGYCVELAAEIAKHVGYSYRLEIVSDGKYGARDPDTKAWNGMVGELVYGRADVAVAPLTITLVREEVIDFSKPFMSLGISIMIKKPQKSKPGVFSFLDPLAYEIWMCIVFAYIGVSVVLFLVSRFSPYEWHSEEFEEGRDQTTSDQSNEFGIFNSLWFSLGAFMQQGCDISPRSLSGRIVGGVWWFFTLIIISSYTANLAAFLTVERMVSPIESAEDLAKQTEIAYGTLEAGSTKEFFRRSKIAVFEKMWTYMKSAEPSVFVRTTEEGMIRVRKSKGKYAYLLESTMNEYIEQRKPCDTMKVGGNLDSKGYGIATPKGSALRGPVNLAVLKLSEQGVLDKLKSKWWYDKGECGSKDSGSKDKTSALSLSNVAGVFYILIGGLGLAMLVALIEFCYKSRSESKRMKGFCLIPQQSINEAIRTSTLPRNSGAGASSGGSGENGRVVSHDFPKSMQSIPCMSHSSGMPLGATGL
T1 sequence (Q9Y698 whole entry partner): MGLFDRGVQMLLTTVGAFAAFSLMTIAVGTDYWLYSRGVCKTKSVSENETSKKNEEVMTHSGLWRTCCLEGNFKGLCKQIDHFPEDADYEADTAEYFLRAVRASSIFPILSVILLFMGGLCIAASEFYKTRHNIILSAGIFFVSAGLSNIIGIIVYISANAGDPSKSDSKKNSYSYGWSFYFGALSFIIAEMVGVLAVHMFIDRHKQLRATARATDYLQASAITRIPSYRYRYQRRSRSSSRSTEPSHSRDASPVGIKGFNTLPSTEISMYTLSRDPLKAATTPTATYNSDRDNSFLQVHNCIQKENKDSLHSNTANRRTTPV

SMILES | activation at 30 µM [1] [%] | Novel Object Interaction (%) [2] [%] | novel object interaction (result in words) [2]
Cc1cc2c(nc(C(F)(F)F)n2CC(F)F)c(-c2ccc(C(=O)N3CCOCC(F)(F)C3)c(F)c2)n1 [Example 38, (4-(1-(2,2-difluoroethyl)-6-methyl-2-(trifluoromethyl)-1H-imidazo[4,5-c]pyridin-4-yl)-2-fluorophenyl)(6,6-difluoro-1,4-oxazepan-4-yl)methanone] | 100 |  | 
O=C(c1ccc(-c2cccc3c2nc(C(F)(F)F)n3CC(F)F)cn1)N1CCOCC(F)(F)C1 [Example 39, (5-(1-(2,2-difluoroethyl)-2-(trifluoromethyl)-1H-benzimidazol-4-yl)pyridin-2-yl)(6,6-difluoro-1,4-oxazepan-4-yl)methanone] | 110 |  | 
C[C@@H]1CN(C(=O)c2ccc(-c3nccc4c3nc(C(F)(F)F)n4CC(F)F)cc2F)CCO1 [Example 44, (4-(1-(2,2-difluoroethyl)-2-(trifluoromethyl)-1H-imidazo[4,5-c]pyridin-4-yl)-2-fluorophenyl)((2R)-2-methylmorpholin-4-yl)methanone] | 85.5 |  | 
O=C(c1ccc(-c2cccc3c2nc(C(F)(F)F)n3CC(F)F)nc1)N1CCOCC(F)(F)C1 [Example 46, (6-(1-(2,2-difluoroethyl)-2-(trifluoromethyl)-1H-benzimidazol-4-yl)pyridin-3-yl)(6,6-difluoro-1,4-oxazepan-4-yl)methanone] | 77 |  | 
O=C(c1ccc(-c2nccc3c2nc(C(F)(F)F)n3CC(F)F)cc1)N1CCOCC(F)(F)C1 [Example 50, (4-(1-(2,2-difluoroethyl)-2-(trifluoromethyl)-1H-imidazo[4,5-c]pyridin-4-yl)phenyl)(6,6-difluoro-1,4-oxazepan-4-yl)methanone] | 122 |  | 
O=C(c1ccc(-c2nccc3c2nc(C(F)(F)F)n3CC(F)F)c(F)c1)N1CCOCC1 [Example 53, (4-(1-(2,2-difluoroethyl)-2-(trifluoromethyl)-1H-imidazo[4,5-c]pyridin-4-yl)-3-fluorophenyl)(morpholin-4-yl)methanone] | 69 |  | 

Now from value to molecule, other results behind:

activation at 30 µM [1] [%] | SMILES | Novel Object Interaction (%) [2] [%] | novel object interaction (result in words) [2]
90.5 | O=C(c1ccc(-c2nccc3c2nc(C(F)(F)F)n3CC(F)F)cc1F)N1CCOCC1 [Example 10, (4-(1-(2,2-difluoroethyl)-2-(trifluoromethyl)-1H-imidazo[4,5-c]pyridin-4-yl)-2-fluorophenyl)(morpholin-4-yl)methanone] | 56.32 ± 1.56 | increased
81.2 | O=C(c1ncc(-c2cccc3c2nc(C(F)(F)F)n3CC(F)F)cc1F)N1CCOCC1 [Example 35, (5-(1-(2,2-difluoroethyl)-2-(trifluoromethyl)-1H-benzimidazol-4-yl)-3-fluoropyridin-2-yl)(morpholin-4-yl)methanone] | 61.28 ± 2.35 | increased
89.8 | CO[C@@H]1CCN(C(=O)c2ccc(-c3nccc4c3nc(C(F)(F)F)n4CC(F)F)cc2F)C1 [Example 37, (4-(1-(2,2-difluoroethyl)-2-(trifluoromethyl)-1H-imidazo[4,5-c]pyridin-4-yl)-2-fluorophenyl)((3R)-3-methoxypyrrolidin-1-yl)methanone] |  | 
83.9 | O=C(c1ccc(-c2nccc3c2nc(C(F)(F)F)n3CC(F)F)c(F)c1F)N1CCOCC1 [Example 42, (4-(1-(2,2-difluoroethyl)-2-(trifluoromethyl)-1H-imidazo[4,5-c]pyridin-4-yl)-2,3-difluorophenyl)(morpholin-4-yl)methanone] |  | 
80.2 | O=C(c1ccc(-c2nccc3c2nc(C(F)(F)F)n3CC(F)F)cc1F)N1CCOCC2(CC2)C1 [Example 48, (4-(1-(2,2-difluoroethyl)-2-(trifluoromethyl)-1H-imidazo[4,5-c]pyridin-4-yl)-2-fluorophenyl)(5-oxa-8-azaspiro[2.6]non-8-yl)methanone] |  | 
113 | O=C(c1ccc(-c2cccc3c2nc(C(F)(F)F)n3CC(F)F)c(F)c1)N1CCOCC1 [Example 51, (4-(1-(2,2-difluoroethyl)-2-(trifluoromethyl)-1H-benzimidazol-4-yl)-3-fluorophenyl)(morpholin-4-yl)methanone] |  | 
67.1 | COC1CCN(C(=O)c2ccc(-c3nccc4c3nc(C(F)(F)F)n4CC(F)F)cc2F)CC1 [Example 52, (4-(1-(2,2-difluoroethyl)-2-(trifluoromethyl)-1H-imidazo[4,5-c]pyridin-4-yl)-2-fluorophenyl)(4-methoxypiperidin-1-yl)methanone] |  | 

From US11939327B2, “Heterocyclic compounds” (Takeda Pharmaceutical Company Limited, priority 2017, dated 2024)
